One data set in a line: HLM stability. The data set is classed as in vitro ADME.
Data set [1] has as its target recombinant HCV NS3 protease, genotype 1b (Hepatitis C virus genotype 1b, UniProt Q9WMX2). Put plainly: biochemical. Conditions: genotype 1b NS3 protease; read-out: IC50 in a 1b enzyme assay.
Data set [2] deals with recombinant HCV NS3 protease, genotype 1a (Hepatitis C virus genotype 1a, UniProt P27958). The experiment in a line: biochemical. To be noted: genotype 1a NS3 protease; read-out: IC50 in a 1a enzyme assay.
The test system of data set [3] is HCV genotype 1b replicon (1b-Con-1). Put plainly: microbe, parasite or virus in culture. The data set is classed as cell-based. Conditions: Hepatitis C virus, read-out: EC50 in a replicon cell line assay in a 1b-con1 background.
Data set [4] deals with HCV genotype 1a replicon (1a-H77). Put plainly: microbe, parasite or virus in culture. The data set is classed as cell-based. Conditions: Hepatitis C virus, read-out: EC50 in a replicon cell line assay in a 1a-H77 background. A general note: In antiviral work, replicon cells carry a viral genome segment that copies itself.

Chain of recombinant HCV NS3 protease, genotype 1a (P27958 1027-1657, other chains not shown): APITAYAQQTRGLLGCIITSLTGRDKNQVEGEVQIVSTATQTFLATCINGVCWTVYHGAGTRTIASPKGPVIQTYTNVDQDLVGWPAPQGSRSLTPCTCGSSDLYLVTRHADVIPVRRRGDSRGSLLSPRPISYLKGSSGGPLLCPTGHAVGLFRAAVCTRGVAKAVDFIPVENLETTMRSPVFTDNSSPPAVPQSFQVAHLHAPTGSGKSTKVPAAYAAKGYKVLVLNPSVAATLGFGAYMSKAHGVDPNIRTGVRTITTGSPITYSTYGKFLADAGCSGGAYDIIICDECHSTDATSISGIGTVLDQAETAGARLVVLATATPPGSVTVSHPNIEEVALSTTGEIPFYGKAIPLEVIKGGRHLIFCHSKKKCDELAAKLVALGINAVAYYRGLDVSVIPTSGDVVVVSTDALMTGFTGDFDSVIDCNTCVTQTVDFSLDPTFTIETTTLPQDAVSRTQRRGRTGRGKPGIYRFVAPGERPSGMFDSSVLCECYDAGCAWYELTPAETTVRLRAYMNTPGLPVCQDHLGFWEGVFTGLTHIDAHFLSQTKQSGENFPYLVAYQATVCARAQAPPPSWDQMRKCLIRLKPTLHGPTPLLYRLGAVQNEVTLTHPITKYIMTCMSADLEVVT
Chain of recombinant HCV NS3 protease, genotype 1b (Q9WMX2 1027-1657, other chains not shown): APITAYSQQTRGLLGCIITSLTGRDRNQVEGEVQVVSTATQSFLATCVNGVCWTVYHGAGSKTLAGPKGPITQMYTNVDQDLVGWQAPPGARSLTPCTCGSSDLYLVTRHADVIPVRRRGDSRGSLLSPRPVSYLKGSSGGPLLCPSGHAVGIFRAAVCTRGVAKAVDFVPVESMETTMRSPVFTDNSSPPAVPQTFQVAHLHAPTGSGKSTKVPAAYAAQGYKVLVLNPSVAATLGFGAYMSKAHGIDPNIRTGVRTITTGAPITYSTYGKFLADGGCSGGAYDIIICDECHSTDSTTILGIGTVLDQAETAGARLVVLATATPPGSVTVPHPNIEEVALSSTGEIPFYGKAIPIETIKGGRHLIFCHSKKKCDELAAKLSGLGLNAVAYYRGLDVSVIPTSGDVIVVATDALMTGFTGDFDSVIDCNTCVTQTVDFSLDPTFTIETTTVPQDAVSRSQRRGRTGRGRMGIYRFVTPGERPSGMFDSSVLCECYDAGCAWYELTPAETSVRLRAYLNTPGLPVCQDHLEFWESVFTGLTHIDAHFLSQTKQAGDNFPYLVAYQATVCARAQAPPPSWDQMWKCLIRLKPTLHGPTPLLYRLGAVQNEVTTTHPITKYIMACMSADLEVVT

Regarding `Cc1cnc(C(=O)N[C@H]2CCCCCC(F)(F)C[C@@H]3C[C@@]3(C(=O)NS(=O)(=O)C3CC3)NC(=O)[C@@H]3C[C@@H](Oc4nc5ccccc5c5ccccc45)CN3C2=O)cn1` [Example 20, (2R,6S,13aS,14aR,16aS)-N-(cyclopropylsulfonyl)-12,12-difluoro-6-(5-methylpyrazine-2-carboxamido)-5,16-dioxo-2-(phenanthridin-6-yloxy)octadecahydrocyclopropa[e]pyrrolo[1,2-a][1,4]diazacyclopentadecine-14a-carboxamide], in “HLM stability”, the HLM stability value was less than 50 µL/min/mg.
On the same count and under the same terms, the result for `Cc1cc(C(=O)N[C@H]2CCCCCC(F)(F)C[C@@H]3C[C@@]3(C(=O)NS(=O)(=O)C3CC3)NC(=O)[C@@H]3C[C@@H](Oc4nc5ccccc5c5ccccc45)CN3C2=O)nn1C` [Example 21, (2R,6S,13aS,14aR,16a5)-N-(cyclopropylsulfonyl)-6-(1,5-dimethyl-1H-pyrazole-3-carboxamido)-12,12-difluoro-5,16-dioxo-2-(phenanthridin-6-yloxy)octadecahydrocyclopropa[e]pyrrolo[1,2-a][1,4]diazacyclopentadecine-14a-carboxamide] reads less than 50 µL/min/mg.
As for `Cc1cc(C(=O)N[C@H]2CCCCCC(F)(F)C[C@@H]3C[C@@]3(C(=O)NS(=O)(=O)C3CC3)NC(=O)[C@@H]3C[C@@H](Oc4nc5ccccc5nc4-c4ccccc4)CN3C2=O)no1` [Example 6, N-((2R,6S,13aS,14aR,16aS)-14a-(cyclopropylsulfonylcarbamoyl)-12,12-difluoro-5,16-dioxo-2-(3-phenylquinoxalin-2-yloxy)octadecahydrocyclopropa[e]pyrrolo[1,2-a][1,4]diazacyclopentadecin-6-yl)-5-methylisoxazole-3-carboxamide], the HLM stability value in “HLM stability” was less than 50 µL/min/mg.
As to `Cc1cc(C(=O)N[C@H]2CCCCCC(F)(F)C[C@@H]3C[C@@]3(C(=O)NS(=O)(=O)C3CC3)NC(=O)[C@@H]3C[C@@H](Oc4nc5ccccc5nc4-c4nc5ccccc5s4)CN3C2=O)no1` [Example 14, N-((2R,6S,13aS,14aR,16aS)-2-(3-(benzo[d]thiazol-2-yl)quinoxalin-2-yloxy)-14a-(cyclopropylsulfonylcarbamoyl)-12,12-difluoro-5,16-dioxooctadecahydrocyclopropa[e]pyrrolo [1,2-a][1,4]diazacyclopentadecin-6-yl)-5-methylisoxazole-3-carboxamide], the half-inhibitory concentration (IC50) in data set [1] and in data set [2] was 0.1 to 0.5 nM each time. The molecule further yielded an HLM stability value in “HLM stability” of less than 50 µL/min/mg. The EC50 (commonly the concentration giving half of the maximal effect) in data set [3] fell in the range of 1 to 2 nM; in data set [4], 2 to 5 nM.
Take `Cc1cc(C(=O)N[C@H]2CCCCCC(F)(F)C[C@@H]3C[C@@]3(C(=O)NS(=O)(=O)C3CC3)NC(=O)[C@@H]3C[C@@H](Oc4nc5ccccc5nc4C)CN3C2=O)no1` [Example 4, N-((2R,6S,13aS,14aR,16aS)-14a-(cyclopropylsulfonylcarbamoyl)-12,12-difluoro-2-(3-methylquinoxalin-2-yloxy)-5,16-dioxooctadecahydrocyclopropa[e]pyrrolo[1,2-a][1,4]diazacyclopentadecin-6-yl)-5-methylisoxazole-3-carboxamide]: the HLM stability value in the data set “HLM stability” was less than 50 µL/min/mg.
In the case of `CC(C)(C)OC(=O)N[C@H]1CCCCCC(F)(F)C[C@@H]2C[C@@]2(C(=O)NS(=O)(=O)C2CC2)NC(=O)[C@@H]2C[C@@H](Oc3cnc4ccccc4n3)CN2C1=O` [Example 1, tert-butyl(2R,6S,13aS,14aR,16aS)-14a-(cyclopropylsulfonylcarbamoyl)-12,12-difluoro-5,16-dioxo-2-(quinoxalin-2-yloxy)octadecahydrocyclopropa[e]pyrrolo[1,2-a][1,4]diazacyclopentadecin-6-ylcarbamate], the IC50 in data set [1] and in data set [2] was more than 1 nM in each case. The molecule further registered an HLM stability value in “HLM stability” of 50 to 100 µL/min/mg.
Turning to `Cn1ccc(C(=O)N[C@H]2CCCCCC(F)(F)C[C@@H]3C[C@@]3(C(=O)NS(=O)(=O)C3CC3)NC(=O)[C@@H]3C[C@@H](Oc4nc5ccccc5nc4-c4cc5ccccc5o4)CN3C2=O)n1` [Example 17, (2R,6S,13aS,14aR,16aS)-2-(3-(benzofuran-2-yl)quinoxaline-2-yloxy)-N-(cyclopropylsulfonyl)-12,12-difluoro-6-(1-methyl-1H-pyrazole-3-carboxamido)-5,16-dioxooctadecahydrocyclopropa[e]pyrrolo [1,2-a][1,4]diazacyclopentadecine-14a-carboxamide], the figures for the half-inhibitory concentration (IC50) in data set [1] and in data set [2] were less than 0.1 nM and 0.1 to 0.5 nM, respectively. Moreover, in the data set “HLM stability”, the HLM stability value is less than 50 µL/min/mg.
In turn, `Cc1cc(C(=O)N[C@H]2CCCCCC(F)(F)C[C@@H]3C[C@@]3(C(=O)NS(=O)(=O)C3CC3)NC(=O)[C@@H]3C[C@@H](Oc4cnc5ccccc5n4)CN3C2=O)no1` [Example 2, N-((2R,6S,13aS,14aR,16aS)-14a-(cyclopropylsulfonylcarbamoyl)-12,12-difluoro-5,16-dioxo-2-(quinoxalin-2-yloxy)octadecahydrocyclopropa[e]pyrrolo[1,2-a][1,4]diazacyclopentadecin-6-yl)-5-methylisoxazole-3-carboxamide] gave an HLM stability value in the data set “HLM stability” of less than 50 µL/min/mg.
For the molecule `CCc1nc2ccccc2nc1O[C@@H]1C[C@H]2C(=O)N[C@]3(C(=O)NS(=O)(=O)C4CC4)C[C@H]3CC(F)(F)CCCCC[C@H](NC(=O)OC(C)(C)C)C(=O)N2C1` [Example 7, tert-butyl (2R,6S,13aS,14aR,16aS)-14a-(cyclopropylsulfonylcarbamoyl)-2-(3-ethylquinoxalin-2-yloxy)-12,12-difluoro-5,16-dioxooctadecahydrocyclopropa[e]pyrrolo [1,2-a][1,4]diazacyclopentadecin-6-ylcarbamate], the IC50 – broadly, the point on the concentration scale where inhibition reaches its midpoint – in data set [1] was 0.1 to 0.5 nM; in data set [2], 0.5 to 1 nM. In “HLM stability”, the HLM stability value was more than 100 µL/min/mg. In addition, the 50% effective concentration (EC50) in data set [3] lay within 1 to 2 nM; in data set [4], 2 to 5 nM.
`CC(C)(C)OC(=O)N[C@H]1CCCCCC(F)(F)C[C@@H]2C[C@@]2(C(=O)NS(=O)(=O)C2CC2)NC(=O)[C@@H]2C[C@@H](Oc3nc4ccccc4nc3-c3ccccc3)CN2C1=O` [Example 5, tert-butyl (2R,6S ,13aS,14aR,16aS)-14a-(cyclopropylsulfonylcarbamoyl)-12,12-difluoro-5,16-dioxo-2-(3-phenylquinoxalin-2-yloxy)octadecahydrocyclopropa[e]pyrrolo[1,2-a][1,4]diazacyclopentadecin-6-ylcarbamate]: the IC50 in data set [1] and in data set [2] was 0.5 to 1 nM in each case.
Consider `CCc1nc2ccccc2nc1O[C@@H]1C[C@H]2C(=O)N[C@]3(C(=O)NS(=O)(=O)C4CC4)C[C@H]3CC(F)(F)CCCCC[C@H](NC(=O)c3ccon3)C(=O)N2C1` [Example 11, N-((2R,6S ,13aS,14aR,16aS)-14a-(cyclopropylsulfonylcarbamoyl)-2-(3-ethylquinoxalin-2-yloxy)-12,12-difluoro-5,16-dioxooctadecahydrocyclopropa[e]pyrrolo[1,2-a][1,4]diazacyclopentadecin-6-yl)isoxazole-3-carboxamide], for which the 50% inhibitory concentration (IC50) in data set [1] and in data set [2] was 0.1 to 0.5 nM in each case. Also, the HLM stability value in the data set “HLM stability” was less than 50 µL/min/mg. Also, the concentration for a half-maximal effect (EC50) in data set [3] is 2 to 5 nM; in data set [4], more than 5 nM.
Take `CCc1nc2ccccc2nc1O[C@@H]1C[C@H]2C(=O)N[C@]3(C(=O)NS(=O)(=O)C4(C)CC4)C[C@H]3CC(F)(F)CCCCC[C@H](NC(=O)c3cc(C)on3)C(=O)N2C1` [Example 10, N-((2R,6S,13aS,14aR,16aS)-2-(3-ethylquinoxalin-2-yloxy)-12,12-difluoro-14a-(1-methylcyclopropylsulfonylcarbamoyl)-5,16-dioxooctadecahydrocyclopropa[e]pyrrolo [1,2-a][1,4]diazacyclopentadecin-6-yl)-5-methylisoxazole-3-carboxamide]: the HLM stability value in “HLM stability” is less than 50 µL/min/mg. Moreover, the EC50 in data set [3] fell in the range of 1 to 2 nM; in data set [4] it was 2 to 5 nM.
On to `Cc1cc(C(=O)N[C@H]2CCCCCC(F)(F)C[C@@H]3C[C@@]3(C(=O)NS(=O)(=O)C3CC3)NC(=O)[C@@H]3C[C@@H](Oc4nc5ccccc5nc4-c4cc5ccccc5o4)CN3C2=O)no1` [Example 16, N-((2R,6S,13aS,14aR,16aS)-2-(3-(benzofuran-2-yl)quinoxaline-2-yloxy)-14a-(cyclopropylsulfonylcarbamoyl)-12,12-difluoro-5,16-dioxooctadecahydrocyclopropa[e]pyrrolo[1,2-a][1,4]diazacyclopentadecin-6-yl)-5-methylisoxazole-3-carboxamide], for which the IC50 in data set [1] and in data set [2] was 0.1 to 0.5 nM in each case.
For `Cc1nc2ccccc2nc1O[C@@H]1C[C@H]2C(=O)N[C@]3(C(=O)NS(=O)(=O)C4CC4)C[C@H]3CC(F)(F)CCCCC[C@H](NC(=O)OC(C)(C)C)C(=O)N2C1` [Example 3, tert-butyl (2R,6S,13aS,14aR,16aS)-14a-(cyclopropylsulfonylcarbamoyl)-12,12-difluoro-2-(3-methylquinoxalin-2-yloxy)-5,16-dioxooctadecahydrocyclopropa[e]pyrrolo[1,2-a][1,4]diazacyclopentadecin-6-ylcarbamate], the 50% inhibitory concentration (IC50) in data set [1] and in data set [2] was 0.1 to 0.5 nM each time.
As for `Cc1cc(C(=O)N[C@H]2CCCCCC(F)(F)C[C@@H]3C[C@@]3(C(=O)NS(=O)(=O)C3CC3)NC(=O)[C@@H]3C[C@@H](Oc4nc5ccccc5c5ccccc45)CN3C2=O)no1` [Example 18, N-((2R,6S,13aS,14aR,16aS)-14a-(cyclopropylsulfonylcarbamoyl)-12,12-difluoro-5,16-dioxo-2-(phenanthridin-6-yloxy)octadecahydrocyclopropa[e]pyrrolo[1,2-a][1,4]diazacyclopentadecin-6-yl)-5-methylisoxazole-3-carboxamide], the concentration giving a half-maximal response (EC50) in data set [3] and in data set [4] was less than 1 nM throughout.

For the origin of these results see patent publication US8937041B2, “Macrocyclic hepatitis C serine protease inhibitors” (AbbVie, Inc., priority 2010, dated 2015).
